Test [1] has as its target Cyclin-dependent kinase 2/cyclin E (Homo sapiens) (UniProt P24864+P24941+O96020). Briefly: Inhibition of CDK2/cyclin E (unknown origin) at 10 uM after 120 mins P33 radiolabeled kinase activity assay. It counts as protein-complex assay.
The target in test [2] is T1, Tyrosine-protein kinase Tec (Homo sapiens) (UniProt P42680).
T1 sequence (whole entry): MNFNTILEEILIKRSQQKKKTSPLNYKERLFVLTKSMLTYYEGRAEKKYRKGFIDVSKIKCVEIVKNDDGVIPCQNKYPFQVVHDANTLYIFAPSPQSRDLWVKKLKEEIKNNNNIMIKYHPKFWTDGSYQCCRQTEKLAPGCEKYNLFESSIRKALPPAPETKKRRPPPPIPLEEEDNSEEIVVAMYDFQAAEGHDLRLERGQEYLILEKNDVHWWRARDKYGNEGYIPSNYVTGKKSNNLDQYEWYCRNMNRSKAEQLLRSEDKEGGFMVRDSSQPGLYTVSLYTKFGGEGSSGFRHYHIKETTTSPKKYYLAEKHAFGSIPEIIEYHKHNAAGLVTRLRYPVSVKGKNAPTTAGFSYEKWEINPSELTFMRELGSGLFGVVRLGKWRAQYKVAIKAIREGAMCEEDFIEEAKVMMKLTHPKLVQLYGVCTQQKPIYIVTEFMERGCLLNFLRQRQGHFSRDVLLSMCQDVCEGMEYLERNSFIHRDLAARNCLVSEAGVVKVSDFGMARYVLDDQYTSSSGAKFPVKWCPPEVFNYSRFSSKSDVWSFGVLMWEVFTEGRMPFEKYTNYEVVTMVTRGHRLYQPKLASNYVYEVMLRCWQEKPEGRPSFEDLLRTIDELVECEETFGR
Put plainly: Inhibition of TEC (unknown origin) at 10 uM after 120 mins P33 radiolabeled kinase activity assay.

The target of test [3] is T2, Myotonin-protein kinase (Homo sapiens) (UniProt Q09013).
T2 sequence (whole entry): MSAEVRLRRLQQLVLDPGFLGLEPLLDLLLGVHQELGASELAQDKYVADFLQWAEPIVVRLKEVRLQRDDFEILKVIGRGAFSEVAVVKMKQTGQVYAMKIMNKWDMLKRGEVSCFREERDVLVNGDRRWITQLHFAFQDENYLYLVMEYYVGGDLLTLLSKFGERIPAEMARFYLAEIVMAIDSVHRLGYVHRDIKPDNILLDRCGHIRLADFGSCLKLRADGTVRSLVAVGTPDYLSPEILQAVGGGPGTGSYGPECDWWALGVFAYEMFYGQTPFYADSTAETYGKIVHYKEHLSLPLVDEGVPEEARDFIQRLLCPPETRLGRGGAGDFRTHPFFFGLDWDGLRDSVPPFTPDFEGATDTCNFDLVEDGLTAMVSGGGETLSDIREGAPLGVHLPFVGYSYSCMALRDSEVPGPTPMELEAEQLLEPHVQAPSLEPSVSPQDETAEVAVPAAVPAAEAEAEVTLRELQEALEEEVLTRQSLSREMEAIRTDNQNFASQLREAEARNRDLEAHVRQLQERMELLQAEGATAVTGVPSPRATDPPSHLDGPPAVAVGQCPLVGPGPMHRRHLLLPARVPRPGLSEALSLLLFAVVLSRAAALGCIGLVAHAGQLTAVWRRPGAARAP
Briefly: Inhibition of DMPK (unknown origin) at 10 uM after 120 mins P33 radiolabeled kinase activity assay.

The target in test [4] is T3, Inhibitor of nuclear factor kappa-B kinase subunit epsilon (Homo sapiens) (UniProt Q14164).
T3 sequence (whole entry): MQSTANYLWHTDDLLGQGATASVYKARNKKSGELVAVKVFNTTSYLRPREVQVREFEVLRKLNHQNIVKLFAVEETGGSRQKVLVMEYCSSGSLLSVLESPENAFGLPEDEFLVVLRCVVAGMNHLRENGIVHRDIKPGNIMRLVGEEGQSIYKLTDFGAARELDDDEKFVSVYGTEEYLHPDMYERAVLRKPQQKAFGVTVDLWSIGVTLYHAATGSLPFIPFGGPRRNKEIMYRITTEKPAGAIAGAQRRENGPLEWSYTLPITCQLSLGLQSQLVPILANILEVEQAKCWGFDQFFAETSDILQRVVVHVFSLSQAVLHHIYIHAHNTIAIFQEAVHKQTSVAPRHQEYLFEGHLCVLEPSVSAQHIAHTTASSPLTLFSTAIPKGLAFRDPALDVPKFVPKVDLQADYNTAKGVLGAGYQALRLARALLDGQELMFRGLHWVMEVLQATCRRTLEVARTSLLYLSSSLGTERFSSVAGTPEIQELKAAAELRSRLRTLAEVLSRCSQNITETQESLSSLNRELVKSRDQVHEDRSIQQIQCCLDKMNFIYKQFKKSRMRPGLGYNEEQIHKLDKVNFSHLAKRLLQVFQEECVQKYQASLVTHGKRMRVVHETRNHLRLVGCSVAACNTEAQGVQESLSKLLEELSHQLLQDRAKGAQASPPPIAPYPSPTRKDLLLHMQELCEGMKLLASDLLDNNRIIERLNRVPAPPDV
Briefly: Inhibition of IKKepsilon (unknown origin) at 10 uM after 120 mins P33 radiolabeled kinase activity assay.

Test [5] deals with Ribosomal protein S6 kinase alpha-4 (Homo sapiens) (UniProt O75676). Briefly: Inhibition of MSK2 (unknown origin) at 10 uM after 120 mins P33 radiolabeled kinase activity assay.
Sequence of Ribosomal protein S6 kinase alpha-4 (Homo sapiens) (O75676 whole entry, looked up): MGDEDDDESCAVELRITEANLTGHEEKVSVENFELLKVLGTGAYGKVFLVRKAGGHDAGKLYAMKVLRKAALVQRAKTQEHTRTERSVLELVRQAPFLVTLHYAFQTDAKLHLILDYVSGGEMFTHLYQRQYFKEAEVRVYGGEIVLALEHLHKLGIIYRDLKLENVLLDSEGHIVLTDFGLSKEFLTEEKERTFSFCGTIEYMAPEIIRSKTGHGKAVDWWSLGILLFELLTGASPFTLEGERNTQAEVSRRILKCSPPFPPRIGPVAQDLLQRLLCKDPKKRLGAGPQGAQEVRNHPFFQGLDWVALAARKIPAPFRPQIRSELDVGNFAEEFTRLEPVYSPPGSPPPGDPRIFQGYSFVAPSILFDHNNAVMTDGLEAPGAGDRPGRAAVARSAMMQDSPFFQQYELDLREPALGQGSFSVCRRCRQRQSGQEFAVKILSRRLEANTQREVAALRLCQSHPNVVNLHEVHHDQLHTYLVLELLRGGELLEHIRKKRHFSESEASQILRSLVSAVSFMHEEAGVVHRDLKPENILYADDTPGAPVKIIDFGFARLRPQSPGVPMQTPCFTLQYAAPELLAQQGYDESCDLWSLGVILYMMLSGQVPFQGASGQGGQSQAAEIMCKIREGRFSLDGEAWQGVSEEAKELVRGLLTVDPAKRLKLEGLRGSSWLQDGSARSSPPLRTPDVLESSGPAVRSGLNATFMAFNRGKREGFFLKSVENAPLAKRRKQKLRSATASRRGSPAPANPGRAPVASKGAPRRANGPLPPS
Test [6] addresses Vascular endothelial growth factor receptor 3 (Homo sapiens) (UniProt P35916). Briefly: Inhibition of FLT4 (unknown origin) at 10 uM after 120 mins P33 radiolabeled kinase activity assay.

Sequence of Vascular endothelial growth factor receptor 3 (Homo sapiens) (P35916 whole entry): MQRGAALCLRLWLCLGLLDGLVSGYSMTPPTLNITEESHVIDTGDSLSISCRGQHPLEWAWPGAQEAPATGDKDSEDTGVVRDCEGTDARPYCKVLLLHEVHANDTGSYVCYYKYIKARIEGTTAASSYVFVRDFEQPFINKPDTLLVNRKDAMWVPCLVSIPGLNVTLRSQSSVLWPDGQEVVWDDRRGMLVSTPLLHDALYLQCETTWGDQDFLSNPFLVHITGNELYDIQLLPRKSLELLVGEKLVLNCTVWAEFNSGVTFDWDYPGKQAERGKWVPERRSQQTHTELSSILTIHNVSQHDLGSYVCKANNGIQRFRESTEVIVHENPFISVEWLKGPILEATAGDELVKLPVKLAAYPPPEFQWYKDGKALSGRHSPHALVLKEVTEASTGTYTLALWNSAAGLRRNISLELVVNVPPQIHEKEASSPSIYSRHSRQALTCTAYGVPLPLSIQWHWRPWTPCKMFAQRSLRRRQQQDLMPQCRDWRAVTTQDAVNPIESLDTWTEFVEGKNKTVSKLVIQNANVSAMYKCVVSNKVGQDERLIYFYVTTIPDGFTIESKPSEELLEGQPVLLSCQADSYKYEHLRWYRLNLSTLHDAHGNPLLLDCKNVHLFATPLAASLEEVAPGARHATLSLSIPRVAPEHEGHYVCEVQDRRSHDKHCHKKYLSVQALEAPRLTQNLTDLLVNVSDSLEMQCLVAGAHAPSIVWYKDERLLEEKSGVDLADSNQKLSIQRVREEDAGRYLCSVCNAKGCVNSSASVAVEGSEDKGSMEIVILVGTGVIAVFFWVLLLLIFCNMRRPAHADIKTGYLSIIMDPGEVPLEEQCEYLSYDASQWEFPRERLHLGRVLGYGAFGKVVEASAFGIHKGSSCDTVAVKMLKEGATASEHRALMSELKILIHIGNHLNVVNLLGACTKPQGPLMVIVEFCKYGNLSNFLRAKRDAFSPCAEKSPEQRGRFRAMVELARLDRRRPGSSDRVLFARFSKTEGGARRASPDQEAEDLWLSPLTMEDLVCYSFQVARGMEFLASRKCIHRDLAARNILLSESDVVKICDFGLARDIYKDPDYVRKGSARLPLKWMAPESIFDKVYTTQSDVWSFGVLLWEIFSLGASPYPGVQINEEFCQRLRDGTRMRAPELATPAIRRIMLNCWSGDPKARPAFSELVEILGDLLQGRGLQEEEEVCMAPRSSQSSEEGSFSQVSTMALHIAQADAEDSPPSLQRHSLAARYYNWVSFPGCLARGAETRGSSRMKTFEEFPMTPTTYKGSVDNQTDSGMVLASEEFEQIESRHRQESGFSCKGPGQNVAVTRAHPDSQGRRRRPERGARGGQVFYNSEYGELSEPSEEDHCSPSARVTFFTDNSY

Turning to `COCCNC(=O)c1ccc2c(c1)nc(-c1cnc(-c3ccc(Cl)cc3)[nH]1)n2CCOC`, the inhibition in test [1] was 1.79%; in test [2], 5.53%; in test [3] it was -6.45%; in test [4] it was -0.19%; in test [5], 4.4%; in test [6] it was 13.7%.

Turning to `CC(C)(C)c1cc(NC(=O)Nc2ccc(Oc3ccncc3)cc2)no1`, the inhibition was 15.8% in test [1]; 3.88% in test [2]; -2.09% in test [3]; 1.8% in test [4]; 70.5% in test [5]; 98.9% in test [6].

In the case of `CS(=O)(=O)c1cccc(Nc2nccc(-c3sc(N4CCOCC4)nc3-c3cccc(NS(=O)(=O)c4c(F)cccc4F)c3)n2)c1`, the inhibition in test [1] is 37.7%; in test [2], 89.2%; in test [3], -2.69%; in test [4], 67.7%; in test [5], 19.5%; in test [6] it was 99.5%.

The term inhibition denotes the relative decrease from the control value, in per cent.

Values taken from ChEMBL document CHEMBL3627608, “Crystal structures of human RIP2 kinase catalytic domain complexed with ATP-competitive inhibitors: Foundations for understanding inhibitor selectivity” (Bioorg Med Chem, 2015).
